# In PMC7316778 (Nature Communications, 2020):
# pIC50: −log10 of the molar value. Values joined by “and” are separate entries in the source; they are usually repeats but may differ in a detail not shown here. Identical values can stand only once. Like-named read-outs stand apart in the source and are kept apart here.
# What was measured:
# Experiment in all cases: SelectScreen kinase assay
# [1] = target: ALK (Homo sapiens, UniProt Q9UM73)
# Experimental: (§1) Selectivity profiling assays were performed by the Invitrogen SelectScreen™ Services. […] The concentration of ATP was selected to be equal to the KM, unless indicated otherwise.
# [2] = test system: ALK; details: IC50 on that kinase divided by IC50 on FES^S700C
# Experimental: as §1
# [3] = target: CHUK (IKK alpha) (Homo sapiens, UniProt O15111)
# CHUK (IKK alpha), sequence (O15111 whole entry): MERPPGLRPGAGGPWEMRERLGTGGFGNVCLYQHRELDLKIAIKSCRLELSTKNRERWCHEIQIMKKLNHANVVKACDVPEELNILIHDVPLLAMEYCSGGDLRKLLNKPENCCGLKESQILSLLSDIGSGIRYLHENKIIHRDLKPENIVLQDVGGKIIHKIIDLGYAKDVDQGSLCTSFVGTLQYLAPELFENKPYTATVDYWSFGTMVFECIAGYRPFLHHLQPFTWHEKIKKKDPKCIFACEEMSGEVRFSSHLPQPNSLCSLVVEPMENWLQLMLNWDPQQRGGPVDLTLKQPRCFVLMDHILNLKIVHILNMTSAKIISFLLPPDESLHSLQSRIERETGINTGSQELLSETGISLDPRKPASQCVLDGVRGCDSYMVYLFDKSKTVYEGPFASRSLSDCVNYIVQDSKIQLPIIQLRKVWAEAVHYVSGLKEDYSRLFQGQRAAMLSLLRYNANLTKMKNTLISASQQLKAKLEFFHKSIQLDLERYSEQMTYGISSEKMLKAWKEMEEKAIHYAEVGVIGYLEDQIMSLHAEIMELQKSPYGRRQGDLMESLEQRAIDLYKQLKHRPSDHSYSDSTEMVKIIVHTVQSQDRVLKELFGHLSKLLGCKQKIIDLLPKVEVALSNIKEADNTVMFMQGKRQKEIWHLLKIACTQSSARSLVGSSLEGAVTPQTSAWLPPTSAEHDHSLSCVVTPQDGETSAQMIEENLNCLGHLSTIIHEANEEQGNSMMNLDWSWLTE
# Experimental: as §1
# [4] = target: CSNK1G3 (CK1 gamma 3) (Homo sapiens, UniProt Q9Y6M4)
# CSNK1G3 (CK1 gamma 3), sequence (Q9Y6M4 whole entry): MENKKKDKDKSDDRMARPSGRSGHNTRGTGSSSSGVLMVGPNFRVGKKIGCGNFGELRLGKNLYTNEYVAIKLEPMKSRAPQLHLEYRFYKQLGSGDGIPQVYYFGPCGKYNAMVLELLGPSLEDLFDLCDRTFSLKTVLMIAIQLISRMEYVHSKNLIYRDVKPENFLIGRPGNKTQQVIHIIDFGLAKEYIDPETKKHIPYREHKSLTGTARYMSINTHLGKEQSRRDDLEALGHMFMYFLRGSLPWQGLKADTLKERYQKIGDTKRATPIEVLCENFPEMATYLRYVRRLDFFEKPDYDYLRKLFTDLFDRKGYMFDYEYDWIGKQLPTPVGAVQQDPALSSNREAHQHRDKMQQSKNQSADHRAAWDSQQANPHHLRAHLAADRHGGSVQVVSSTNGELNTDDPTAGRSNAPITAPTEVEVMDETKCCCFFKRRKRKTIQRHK
# Experimental: as §1
# [5] = target: SGK2 (Homo sapiens, UniProt Q9HBY8)
# SGK2, sequence (Q9HBY8 whole entry): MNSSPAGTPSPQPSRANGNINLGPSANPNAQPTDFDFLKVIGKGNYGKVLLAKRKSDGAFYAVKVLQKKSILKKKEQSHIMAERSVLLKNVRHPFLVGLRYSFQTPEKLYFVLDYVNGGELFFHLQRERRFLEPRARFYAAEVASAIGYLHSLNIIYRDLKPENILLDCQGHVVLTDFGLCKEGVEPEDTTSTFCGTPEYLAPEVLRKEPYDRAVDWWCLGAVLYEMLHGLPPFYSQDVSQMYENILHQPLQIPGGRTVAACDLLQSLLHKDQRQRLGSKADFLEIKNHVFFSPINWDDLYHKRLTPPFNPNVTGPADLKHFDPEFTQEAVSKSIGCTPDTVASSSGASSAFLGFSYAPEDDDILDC
# Experimental: as §1
# [6] = target: PAK1 (Homo sapiens, UniProt Q13153)
# Experimental: as §1
# [7] = target: NEK2 (Homo sapiens, UniProt P51955)
# NEK2, sequence (P51955 whole entry): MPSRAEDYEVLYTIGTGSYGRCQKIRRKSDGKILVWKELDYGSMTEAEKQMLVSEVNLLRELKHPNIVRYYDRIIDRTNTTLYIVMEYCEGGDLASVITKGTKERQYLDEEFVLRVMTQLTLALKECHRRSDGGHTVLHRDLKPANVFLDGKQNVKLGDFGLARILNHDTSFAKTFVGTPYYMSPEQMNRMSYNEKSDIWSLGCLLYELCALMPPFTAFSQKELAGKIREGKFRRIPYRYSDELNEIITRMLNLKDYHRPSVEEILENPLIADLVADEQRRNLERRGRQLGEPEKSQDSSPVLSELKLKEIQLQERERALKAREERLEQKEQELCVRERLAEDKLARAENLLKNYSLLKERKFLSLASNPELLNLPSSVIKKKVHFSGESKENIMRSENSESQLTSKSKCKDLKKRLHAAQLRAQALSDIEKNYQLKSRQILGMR
# Experimental: as §1
# [8] = target: DAPK1 (Homo sapiens, UniProt P53355)
# DAPK1, sequence (P53355 whole entry): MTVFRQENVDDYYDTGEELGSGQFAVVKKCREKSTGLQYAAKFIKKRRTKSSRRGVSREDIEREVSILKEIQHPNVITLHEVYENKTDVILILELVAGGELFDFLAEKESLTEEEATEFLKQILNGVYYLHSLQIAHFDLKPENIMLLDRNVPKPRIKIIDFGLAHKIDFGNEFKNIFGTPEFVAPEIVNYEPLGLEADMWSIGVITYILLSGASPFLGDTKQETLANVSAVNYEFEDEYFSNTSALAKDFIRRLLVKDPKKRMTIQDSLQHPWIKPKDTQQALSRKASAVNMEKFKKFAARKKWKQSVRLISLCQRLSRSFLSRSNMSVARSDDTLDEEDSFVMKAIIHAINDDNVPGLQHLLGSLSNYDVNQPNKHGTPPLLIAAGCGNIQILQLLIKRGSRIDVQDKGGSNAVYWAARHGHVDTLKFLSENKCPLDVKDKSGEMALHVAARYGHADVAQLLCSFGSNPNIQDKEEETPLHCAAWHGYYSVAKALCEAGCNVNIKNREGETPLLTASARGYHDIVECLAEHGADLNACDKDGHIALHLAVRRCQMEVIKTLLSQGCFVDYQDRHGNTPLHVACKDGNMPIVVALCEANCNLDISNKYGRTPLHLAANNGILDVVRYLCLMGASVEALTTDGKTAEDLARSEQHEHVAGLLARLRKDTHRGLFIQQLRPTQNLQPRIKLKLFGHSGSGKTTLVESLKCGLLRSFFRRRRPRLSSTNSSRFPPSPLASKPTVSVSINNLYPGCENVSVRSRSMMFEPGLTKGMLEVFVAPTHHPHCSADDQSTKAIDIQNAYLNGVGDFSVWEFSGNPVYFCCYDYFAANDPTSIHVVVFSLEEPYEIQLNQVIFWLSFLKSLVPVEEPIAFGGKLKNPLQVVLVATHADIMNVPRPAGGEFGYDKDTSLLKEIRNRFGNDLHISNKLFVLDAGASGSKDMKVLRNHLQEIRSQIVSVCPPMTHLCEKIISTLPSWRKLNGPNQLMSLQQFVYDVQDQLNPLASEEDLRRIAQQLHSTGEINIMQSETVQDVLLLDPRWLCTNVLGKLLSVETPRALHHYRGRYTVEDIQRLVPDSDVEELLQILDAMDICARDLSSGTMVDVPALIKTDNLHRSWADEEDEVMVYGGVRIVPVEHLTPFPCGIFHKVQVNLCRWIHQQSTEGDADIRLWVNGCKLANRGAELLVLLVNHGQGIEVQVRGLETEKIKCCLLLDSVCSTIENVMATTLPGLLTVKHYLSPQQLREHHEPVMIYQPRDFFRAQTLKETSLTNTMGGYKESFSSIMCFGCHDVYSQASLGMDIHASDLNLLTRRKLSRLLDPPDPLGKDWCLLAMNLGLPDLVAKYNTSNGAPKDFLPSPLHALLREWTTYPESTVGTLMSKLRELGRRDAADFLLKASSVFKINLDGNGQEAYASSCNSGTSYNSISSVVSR
# Experimental: as §1
# [9] = target: T1, PLK4 (Homo sapiens, UniProt O00444)
# T1 sequence (O00444 1-970): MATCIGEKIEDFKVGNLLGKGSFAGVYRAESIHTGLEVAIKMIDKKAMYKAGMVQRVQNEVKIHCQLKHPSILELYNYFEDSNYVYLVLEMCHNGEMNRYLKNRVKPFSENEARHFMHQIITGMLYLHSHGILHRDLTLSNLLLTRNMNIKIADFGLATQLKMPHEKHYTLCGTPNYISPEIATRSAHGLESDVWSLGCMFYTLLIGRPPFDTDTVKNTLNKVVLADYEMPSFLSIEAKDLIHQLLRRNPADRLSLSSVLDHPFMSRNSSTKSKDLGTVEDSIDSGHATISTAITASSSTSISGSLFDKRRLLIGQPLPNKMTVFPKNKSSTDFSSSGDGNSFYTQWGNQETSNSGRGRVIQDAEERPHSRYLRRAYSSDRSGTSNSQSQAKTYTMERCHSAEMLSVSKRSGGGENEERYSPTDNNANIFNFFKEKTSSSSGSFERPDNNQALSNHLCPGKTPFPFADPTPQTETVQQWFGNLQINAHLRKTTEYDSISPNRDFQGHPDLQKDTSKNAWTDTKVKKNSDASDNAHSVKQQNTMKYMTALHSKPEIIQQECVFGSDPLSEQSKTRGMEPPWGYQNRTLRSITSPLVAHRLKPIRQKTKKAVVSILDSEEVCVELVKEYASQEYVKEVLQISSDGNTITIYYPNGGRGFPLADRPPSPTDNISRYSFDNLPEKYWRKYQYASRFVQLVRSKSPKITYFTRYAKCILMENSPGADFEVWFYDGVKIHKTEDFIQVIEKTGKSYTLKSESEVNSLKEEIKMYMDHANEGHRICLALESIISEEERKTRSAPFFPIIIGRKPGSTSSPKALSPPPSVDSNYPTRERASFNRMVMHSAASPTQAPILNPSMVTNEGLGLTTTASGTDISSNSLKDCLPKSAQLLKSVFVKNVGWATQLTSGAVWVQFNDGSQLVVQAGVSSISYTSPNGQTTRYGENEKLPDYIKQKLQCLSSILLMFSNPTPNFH
# Experimental: as §1
# [10] = target: EPHA2 (Homo sapiens, UniProt P29317)
# Experimental: as §1
# [11] = target: AMPK A1/B1/G1 (Homo sapiens, UniProt Q13131)
# Experimental: as §1
# [12] = target: CSNK2A2 (CK2 alpha 2) (Homo sapiens, UniProt P19784)
# Experimental: as §1
# [13] = target: T2, MARK4 (Homo sapiens, UniProt Q96L34)
# T2 sequence (Q96L34 1-752): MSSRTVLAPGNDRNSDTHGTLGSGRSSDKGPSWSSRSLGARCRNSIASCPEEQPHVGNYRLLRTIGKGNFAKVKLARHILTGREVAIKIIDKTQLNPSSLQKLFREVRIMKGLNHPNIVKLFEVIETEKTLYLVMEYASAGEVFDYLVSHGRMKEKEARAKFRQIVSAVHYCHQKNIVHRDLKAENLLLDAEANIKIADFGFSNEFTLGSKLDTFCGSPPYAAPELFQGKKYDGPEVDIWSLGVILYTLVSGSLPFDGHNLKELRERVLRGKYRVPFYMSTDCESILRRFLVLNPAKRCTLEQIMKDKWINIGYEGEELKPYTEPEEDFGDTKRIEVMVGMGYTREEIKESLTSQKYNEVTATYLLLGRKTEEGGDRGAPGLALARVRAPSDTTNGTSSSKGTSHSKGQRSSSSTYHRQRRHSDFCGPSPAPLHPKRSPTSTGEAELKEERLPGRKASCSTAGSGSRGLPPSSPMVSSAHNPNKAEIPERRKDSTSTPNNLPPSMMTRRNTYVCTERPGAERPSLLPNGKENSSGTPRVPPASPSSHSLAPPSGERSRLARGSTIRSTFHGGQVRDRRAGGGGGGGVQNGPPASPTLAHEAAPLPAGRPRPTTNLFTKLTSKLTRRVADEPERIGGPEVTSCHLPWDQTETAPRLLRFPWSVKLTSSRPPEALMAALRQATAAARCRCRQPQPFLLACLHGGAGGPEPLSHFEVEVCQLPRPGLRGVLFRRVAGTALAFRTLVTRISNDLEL
# Experimental: as §1
# [14] = target: EPHA6 (Homo sapiens, UniProt Q9UF33)
# Experimental: as §1
# [15] = 1 h, 1 μM WEL028, 1 h preincubation
# [16] = read-out: Inhibition at 1 µM (%)
# ALK (Homo sapiens, UniProt Q9UM73), sequence (Q9UM73 19-1620, species assumed): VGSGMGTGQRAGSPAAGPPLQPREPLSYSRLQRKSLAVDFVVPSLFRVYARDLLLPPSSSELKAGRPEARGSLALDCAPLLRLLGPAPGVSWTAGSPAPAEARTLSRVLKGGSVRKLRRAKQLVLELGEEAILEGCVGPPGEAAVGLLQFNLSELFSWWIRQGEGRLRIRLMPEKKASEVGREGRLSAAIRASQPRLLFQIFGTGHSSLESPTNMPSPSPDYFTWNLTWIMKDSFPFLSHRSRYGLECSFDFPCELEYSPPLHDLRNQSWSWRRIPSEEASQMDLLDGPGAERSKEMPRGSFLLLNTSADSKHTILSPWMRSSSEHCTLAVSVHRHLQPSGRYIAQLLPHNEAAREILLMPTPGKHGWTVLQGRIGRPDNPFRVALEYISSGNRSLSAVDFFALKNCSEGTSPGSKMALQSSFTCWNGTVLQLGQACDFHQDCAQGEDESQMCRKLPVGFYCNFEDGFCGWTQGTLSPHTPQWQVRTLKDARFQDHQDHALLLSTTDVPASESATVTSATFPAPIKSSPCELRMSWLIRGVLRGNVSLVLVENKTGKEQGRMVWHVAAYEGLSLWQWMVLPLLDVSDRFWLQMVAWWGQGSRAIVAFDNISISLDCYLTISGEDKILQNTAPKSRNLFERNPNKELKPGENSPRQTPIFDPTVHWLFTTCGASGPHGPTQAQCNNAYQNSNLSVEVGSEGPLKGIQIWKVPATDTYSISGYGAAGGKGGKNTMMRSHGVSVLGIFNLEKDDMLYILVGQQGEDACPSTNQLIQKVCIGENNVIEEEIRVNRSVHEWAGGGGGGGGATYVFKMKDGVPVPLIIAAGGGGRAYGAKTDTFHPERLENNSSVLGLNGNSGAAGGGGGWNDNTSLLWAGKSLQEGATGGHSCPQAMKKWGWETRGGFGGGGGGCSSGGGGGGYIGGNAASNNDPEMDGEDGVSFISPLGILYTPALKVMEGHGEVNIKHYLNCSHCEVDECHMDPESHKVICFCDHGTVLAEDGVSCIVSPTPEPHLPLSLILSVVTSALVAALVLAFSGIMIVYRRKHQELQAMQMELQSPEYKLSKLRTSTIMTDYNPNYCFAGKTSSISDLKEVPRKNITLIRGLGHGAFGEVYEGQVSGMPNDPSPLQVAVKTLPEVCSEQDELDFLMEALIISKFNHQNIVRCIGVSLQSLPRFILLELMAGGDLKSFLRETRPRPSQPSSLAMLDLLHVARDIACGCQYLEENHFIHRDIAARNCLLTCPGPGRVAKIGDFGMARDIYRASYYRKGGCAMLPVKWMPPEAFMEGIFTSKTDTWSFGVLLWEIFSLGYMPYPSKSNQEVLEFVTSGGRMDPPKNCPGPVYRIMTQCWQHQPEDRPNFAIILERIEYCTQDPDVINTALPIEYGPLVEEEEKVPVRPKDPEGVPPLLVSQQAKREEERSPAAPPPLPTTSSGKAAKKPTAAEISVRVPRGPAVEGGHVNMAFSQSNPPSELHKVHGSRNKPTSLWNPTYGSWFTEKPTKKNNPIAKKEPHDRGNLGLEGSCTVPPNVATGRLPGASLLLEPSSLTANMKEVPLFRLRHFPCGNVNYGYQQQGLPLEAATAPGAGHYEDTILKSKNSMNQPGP
compound,measurement,setting,value
C#CCOc1ccc(Nc2ncc(Cl)c(Nc3ccccc3NC(=O)C=C)n2)c(OC)c1 [Compound 6],pIC50,[1],6.90
same,inhibition at 1 µM,[1]; [15],89%
same,inhibition at 1 µM,"[1]; read-out: Inhibition at 1 µM (%), ALK, 1 µM, ZLYTE, ATP Km app",90%
same,Apparent fold selectivity,[2],28 fold
same,inhibition at 1 µM,[3]; [15],7%
same,Inhibition at 1 µM (%),"[3]; CHUK (IKK alpha), 1 µM, Adapta, ATP Km app, listed as WEL028, 1 µM",12% and 3%
same,Inhibition (%),"[4]; 1 μM WEL028, 1 h preincubation",0%
same,Inhibition at 1 µM (%),"[4]; CSNK1G3 (CK1 gamma 3), 1 µM, ZLYTE, ATP Km app, listed as WEL028, 1 µM",3% and -2%
same,Inhibition at 1 µM (%),"[5]; 1 µM, ZLYTE, ATP Km app, listed as WEL028, 1 µM",4% and -1%
same,inhibition at 1 µM,[5]; [15],2%
same,inhibition at 1 µM,[6]; 1 h,8%
same,inhibition at 1 µM,[6]; [16],8%
same,inhibition at 1 µM,[7]; [15],12%
same,Inhibition at 1 µM (%),"[7]; NEK2, 1 µM, ZLYTE, ATP Km app",21%
same,inhibition at 1 µM,[8]; [15],12%
same,Inhibition at 1 µM (%),"[8]; DAPK1, 1 µM, Adapta, ATP Km app, listed as WEL028, 1 µM",13%
same,inhibition at 1 µM,"[8]; read-out: Inhibition at 1 µM (%), DAPK1, 1 µM, Adapta, ATP Km app",12%
same,pIC50,[9],7.60
same,inhibition at 1 µM,[9]; [15],98%
same,Apparent fold selectivity,[9]; IC50 on that kinase divided by IC50 on FES^S700C,6 fold
same,inhibition at 1 µM,"[9]; read-out: Inhibition at 1 µM (%), PLK4, 1 µM, LanthaScreen Binding",99%
same,inhibition at 1 µM,[10]; [15],7%
same,Inhibition at 1 µM (%),"[10]; EPHA2, 1 µM, ZLYTE, ATP Km app",13%
same,inhibition at 1 µM,[11]; [15],13%
same,Inhibition at 1 µM (%),"[11]; AMPK A1/B1/G1, 1 µM, ZLYTE, ATP Km app",21%
same,inhibition at 1 µM,[12]; 1 h,6%
same,inhibition at 1 µM,[12]; [16],6%
same,Inhibition (%),"[13]; 1 μM WEL028, 1 h preincubation",8%
same,Inhibition at 1 µM (%),"[13]; MARK4, 1 µM, ZLYTE, ATP Km app, listed as WEL028, 1 µM",6%
same,inhibition at 1 µM,"[13]; read-out: Inhibition at 1 µM (%), MARK4, 1 µM, ZLYTE, ATP Km app",9%
same,inhibition at 1 µM,[14]; [15],6%
same,inhibition at 1 µM,"[14]; read-out: Inhibition at 1 µM (%), EPHA6, 1 µM, LanthaScreen Binding",5%
